# Article PMC7217150, “Synthesis, Modification, and Biological Evaluation of a Library of Novel Water‐Soluble Thiopyridone‐Based Organometallic Complexes and Their Unexpected (Biological) Behavior” (Chemistry (Weinheim an Der Bergstrasse, Germany), 2020)
# Read-outs that look alike come from different tables or passages of the source.
# Experiments:
# A549 [1] = test: MTT cytotoxicity assay, monolayer culture; type: cell-based, human; conditions: exposure time 96 h, means ± SDs
# CH1/PA‐1 [2] = test: MTT cytotoxicity assay, monolayer culture; type: cell-based, human; conditions: CH1/PA‐1, MTT assay, exposure time 96 h, means ± SDs
# SW480 [3] = test: MTT cytotoxicity assay, monolayer culture; type: cell-based, human
# [4] = pH 7.2
# Description: Stock solutions containing the desired complex in DMSO (5 mM) were diluted with phosphate buffer (pH 7.2) to a final concentration of […] compound in 1 % DMSO/20 mM buffer and directly analyzed by four different isocratic UHPLC runs (Δ=5 %). The lipophilicity parameters logkw and lipophilicity indices φ0 were calculated according to literature.7, 37
# A549 [5] = conditions: A549 multicellular spheroids, 96 h drug exposure
# Description: (§1) A549, CH1/PA‐1 and SW480 cells were grown in MEM supplemented with 10 % fetal calf serum (FCS; from Biowest), 1 mM sodium pyruvate, 4 mM L‐glutamine and 1 % v/v nonessential amino acids (from 100×solution) and L‐glutamine. HCT‐116 cells were maintained in McCoy's 5a medium supplemented with 10 % FCS and L‐glutamine. Adherent monolayer cultures were grown in 75 cm^2 flasks. For spheroid culture, A549, CH1/PA‐1 and HCT‐116 cells were harvested from culture flasks by trypsinization, resuspended in their respective supplemented medium and seeded in ultra‐low attachment round‐bottom 96‐well plates (Corning Costar) at a density of 500 viable cells per well. Plates were incubated for 96 h to allow spheroid formation prior to use for the tests. All cultures were incubated in a humidified incubator at 37 °C with 5 % CO2.
# (§2) Cytotoxicity in multicellular spheroids was determined by the fluorimetric resazurin assay. […] After incubation for 96 h, 20 μL of a 440 μM resazurin sodium salt solution in PBS were added to each well, and the plates were incubated for further 16 h. Fluorescence was measured with a Synergy HT reader (BioTek) with an excitation wavelength of 530 nm and emission wavelength of 590 nm. For both assays, at least three independent experiments (or two in case of poor activity) were performed, each with triplicates per concentration level, and the 50 % inhibitory concentrations (IC50) relative to untreated controls were interpolated from concentration‐effect curves.
# CH1/PA‐1 [6] = conditions: CH1/PA‐1 multicellular spheroids, 96 h drug exposure
# Description: as §1, §2
# HCT‐116 = HCT‐116 multicellular spheroids, 96 h drug exposure
# Description: as §1, §2
# CH1/PA‐1 [7] = test: Cell cycle distribution, flow cytometry with propidium iodide; type: cell-based, human; conditions: for Cell cycle distribution G1, % / Cell cycle distribution G2/M, % / Cell cycle distribution S, %: 24 h, mean ± SD; for Relative change in cell cycle distribution G1, % / Relative change in cell cycle distribution G2/M, % / Relative change in cell cycle distribution S, %: difference to untreated control
# Procedure, shortened: (§3)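 CH1/PA-1 and SW480 cells were allowed to attach for 24 h, then exposed continuously to compounds for 24 h at 37 °C. Nuclei were stained overnight at 4 °C with propidium iodide (50 μg mL^−1) in Triton/citrate buffer. 5×10^3 cells were analysed by flow cytometry, with G1/S/G2/M fractions fitted by the Watson Pragmatic model.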
# SW480 [8] = test: as above; type: cell-based, human; conditions: for Cell cycle distribution G1, % / Cell cycle distribution G2/M, % / Cell cycle distribution S, %: 24 h, mean ± SD; for Relative change in cell cycle distribution G1, % / Relative change in cell cycle distribution G2/M, % / Relative change in cell cycle distribution S, %: difference to untreated control
# Procedure, shortened: as §3
# SW480 cells = conditions: for Cellular accumulation: ICP‐MS, 2 h exposure, 50 μM
# [9] = system: human cancer cell lines CH1/PA‐1, SW480, A549
# Description: Cytotoxicity of the compounds in monolayer cultures was determined by the colorimetric MTT assay (MTT=3‐(4,5‐dimethyl‐2‐thiazolyl)‐2,5‐diphenyl‐2H‐tetrazolium bromide). 1×10^3 CH1/PA‐1, 2×10^3 SW480 and 3×10^3 A549 cells were seeded in 100 μL supplemented MEM per well into 96‐well flat‐bottom microculture plates. […] After 96 h, the drug‐containing medium was replaced with 100 μL of RPMI 1640/MTT mixture [6 parts of RPMI 1640 medium (supplemented with 10 % heat‐inactivated fetal bovine serum and 4 mM L‐glutamine), 1 part of MTT solution in phosphate‐buffered saline (5 mg mL^−1)]. After incubation for 4 h, the mixture was replaced with 150 μL DMSO per well to dissolve the formazan product formed by viable cells. Optical densities at 550 nm (and at a reference wavelength of 690 nm) were measured with a microplate reader (ELx808, Bio‐Tek).
# [10] = SW480, MTT assay, exposure time 96 h, means ± SDs
smiles,measurement,setting,value
"CC1=C2[O][Ir+]([Cl])[S]=C2C=CN1C.Cc1c(C)c(C)[c-](C)c1C [Compound 6 a, Chlorido[1,2‐dimethyl‐3‐oxo‐κO‐pyridine‐4(1H)‐thionato‐κS](η^5‐1,2,3,4,5‐pentamethylcyclopentadienyl)iridium(III)]",IC50,A549 [1],63 ± 6 µM
same,IC50,CH1/PA‐1 [2],7 ± 1.6 µM
same,IC50,SW480 [3]; [10],4.2 ± 0.2 µM
same,IC50,"SW480 [3]; SW480, as listed in Table 3",4.18 ± 0.19 µM
same,φ0 (chromatographic lipophilicity index),[4],5.75
same,IC50,A549 [5],270 ± 17 µM
same,IC50,CH1/PA‐1 [6],131 ± 14 µM
same,IC50,HCT‐116,138 ± 6 µM
same,"Cell cycle distribution G1, %","CH1/PA‐1 [7]; CH1/PA-1, 10 µM",29 ± 3%
same,"Cell cycle distribution G2/M, %","CH1/PA‐1 [7]; CH1/PA-1, 10 µM",26 ± 4%
same,"Cell cycle distribution S, %","CH1/PA‐1 [7]; CH1/PA-1, 10 µM",45 ± 8%
same,"Relative change in cell cycle distribution G1, %","CH1/PA‐1 [7]; CH1/PA-1, 10 µM",-11%
same,"Relative change in cell cycle distribution G2/M, %","CH1/PA‐1 [7]; CH1/PA-1, 10 µM",2%
same,"Relative change in cell cycle distribution S, %","CH1/PA‐1 [7]; CH1/PA-1, 10 µM",9%
same,"Cell cycle distribution G1, %","CH1/PA‐1 [7]; CH1/PA-1, 20 µM",33 ± 4%
same,"Cell cycle distribution G2/M, %","CH1/PA‐1 [7]; CH1/PA-1, 20 µM",26 ± 9%
same,"Cell cycle distribution S, %","CH1/PA‐1 [7]; CH1/PA-1, 20 µM",41 ± 10%
same,"Relative change in cell cycle distribution G1, %","CH1/PA‐1 [7]; CH1/PA-1, 20 µM",-7%
same,"Relative change in cell cycle distribution G2/M, %","CH1/PA‐1 [7]; CH1/PA-1, 20 µM",2%
same,"Relative change in cell cycle distribution S, %","CH1/PA‐1 [7]; CH1/PA-1, 20 µM",5%
same,"Cell cycle distribution G1, %","CH1/PA‐1 [7]; CH1/PA-1, 40 µM",28 ± 6%
same,"Cell cycle distribution G2/M, %","CH1/PA‐1 [7]; CH1/PA-1, 40 µM",26 ± 4%
same,"Cell cycle distribution S, %","CH1/PA‐1 [7]; CH1/PA-1, 40 µM",45 ± 5%
same,"Relative change in cell cycle distribution G1, %","CH1/PA‐1 [7]; CH1/PA-1, 40 µM",-12%
same,"Relative change in cell cycle distribution G2/M, %","CH1/PA‐1 [7]; CH1/PA-1, 40 µM",2%
same,"Relative change in cell cycle distribution S, %","CH1/PA‐1 [7]; CH1/PA-1, 40 µM",9%
same,"Cell cycle distribution G1, %","SW480 [8]; SW480, 2.5 µM",48 ± 2%
same,"Cell cycle distribution G2/M, %","SW480 [8]; SW480, 2.5 µM",19 ± 3%
same,"Cell cycle distribution S, %","SW480 [8]; SW480, 2.5 µM",32 ± 1%
same,"Relative change in cell cycle distribution G1, %","SW480 [8]; SW480, 2.5 µM",0%
same,"Relative change in cell cycle distribution G2/M, %","SW480 [8]; SW480, 2.5 µM",0%
same,"Relative change in cell cycle distribution S, %","SW480 [8]; SW480, 2.5 µM",-1%
same,"Cell cycle distribution G1, %","SW480 [8]; SW480, 5 µM",41 ± 4%
same,"Cell cycle distribution G2/M, %","SW480 [8]; SW480, 5 µM",26 ± 5%
same,"Cell cycle distribution S, %","SW480 [8]; SW480, 5 µM",33 ± 9%
same,"Relative change in cell cycle distribution G1, %","SW480 [8]; SW480, 5 µM",-7%
same,"Relative change in cell cycle distribution G2/M, %","SW480 [8]; SW480, 5 µM",7%
same,"Relative change in cell cycle distribution S, %","SW480 [8]; SW480, 5 µM",0%
same,"Cell cycle distribution G1, %","SW480 [8]; SW480, 10 µM",42 ± 4%
same,"Cell cycle distribution G2/M, %","SW480 [8]; SW480, 10 µM",17 ± 3%
same,"Cell cycle distribution S, %","SW480 [8]; SW480, 10 µM",42 ± 3%
same,"Relative change in cell cycle distribution G1, %","SW480 [8]; SW480, 10 µM",-6%
same,"Relative change in cell cycle distribution G2/M, %","SW480 [8]; SW480, 10 µM",-2%
same,"Relative change in cell cycle distribution S, %","SW480 [8]; SW480, 10 µM",9%
same,cellular concentration relative to 3 a,SW480 cells,about 47 times
same,Cellular accumulation,SW480 cells,986±152 fg/cell
"CC1=C2[O][Ir+]([Cl])[S]=C2C=CN1Cc1ccccc1.Cc1c(C)c(C)[c-](C)c1C [Compound 6 c, Chlorido[1‐benzyl‐2‐methyl‐3‐oxo‐κO‐pyridine‐4(1H)‐thionato‐κS](η^5‐1,2,3,4,5‐pentamethylcyclopentadienyl)iridium(III)]",IC50,A549 [1],1.1 ± 0.2 µM
same,IC50,CH1/PA‐1 [2],0.57 ± 0.05 µM
same,IC50,SW480 [3]; [10],0.54 ± 0.07 µM
same,IC50,"SW480 [3]; SW480, as listed in Table 3",0.54 ± 0.07 µM
same,φ0 (chromatographic lipophilicity index),[4],6.22
same,IC50,A549 [5],136 ± 5 µM
same,IC50,CH1/PA‐1 [6],114 ± 3 µM
same,IC50,HCT‐116,78 ± 2 µM
same,"Cell cycle distribution G1, %","CH1/PA‐1 [7]; CH1/PA-1, 0.75 µM",30 ± 4%
same,"Cell cycle distribution G2/M, %","CH1/PA‐1 [7]; CH1/PA-1, 0.75 µM",32 ± 4%
same,"Cell cycle distribution S, %","CH1/PA‐1 [7]; CH1/PA-1, 0.75 µM",38 ± 3%
same,"Relative change in cell cycle distribution G1, %","CH1/PA‐1 [7]; CH1/PA-1, 0.75 µM",-10%
same,"Relative change in cell cycle distribution G2/M, %","CH1/PA‐1 [7]; CH1/PA-1, 0.75 µM",8%
same,"Relative change in cell cycle distribution S, %","CH1/PA‐1 [7]; CH1/PA-1, 0.75 µM",2%
same,"Cell cycle distribution G1, %","CH1/PA‐1 [7]; CH1/PA-1, 1.25 µM",30 ± 8%
same,"Cell cycle distribution G2/M, %","CH1/PA‐1 [7]; CH1/PA-1, 1.25 µM",33 ± 4%
same,"Cell cycle distribution S, %","CH1/PA‐1 [7]; CH1/PA-1, 1.25 µM",37 ± 6%
same,"Relative change in cell cycle distribution G1, %","CH1/PA‐1 [7]; CH1/PA-1, 1.25 µM",-10%
same,"Relative change in cell cycle distribution G2/M, %","CH1/PA‐1 [7]; CH1/PA-1, 1.25 µM",9%
same,"Relative change in cell cycle distribution S, %","CH1/PA‐1 [7]; CH1/PA-1, 1.25 µM",1%
same,"Cell cycle distribution G1, %","CH1/PA‐1 [7]; CH1/PA-1, 2.5 µM",27 ± 4%
same,"Cell cycle distribution G2/M, %","CH1/PA‐1 [7]; CH1/PA-1, 2.5 µM",34 ± 3%
same,"Cell cycle distribution S, %","CH1/PA‐1 [7]; CH1/PA-1, 2.5 µM",39 ± 4%
same,"Relative change in cell cycle distribution G1, %","CH1/PA‐1 [7]; CH1/PA-1, 2.5 µM",-13%
same,"Relative change in cell cycle distribution G2/M, %","CH1/PA‐1 [7]; CH1/PA-1, 2.5 µM",10%
same,"Relative change in cell cycle distribution S, %","CH1/PA‐1 [7]; CH1/PA-1, 2.5 µM",3%
same,decrease in G1 phase,"CH1/PA‐1 [7]; CH1/PA‐1 cells, 2.5 μM",13%
same,"Cell cycle distribution G1, %","SW480 [8]; SW480, 0.75 µM",40 ± 5%
same,"Cell cycle distribution G2/M, %","SW480 [8]; SW480, 0.75 µM",24 ± 5%
same,"Cell cycle distribution S, %","SW480 [8]; SW480, 0.75 µM",36 ± 2%
same,"Relative change in cell cycle distribution G1, %","SW480 [8]; SW480, 0.75 µM",-8%
same,"Relative change in cell cycle distribution G2/M, %","SW480 [8]; SW480, 0.75 µM",5%
same,"Relative change in cell cycle distribution S, %","SW480 [8]; SW480, 0.75 µM",3%
same,"Cell cycle distribution G1, %","SW480 [8]; SW480, 1.25 µM",39 ± 13%
same,"Cell cycle distribution G2/M, %","SW480 [8]; SW480, 1.25 µM",22 ± 3%
same,"Cell cycle distribution S, %","SW480 [8]; SW480, 1.25 µM",38 ± 8%
same,"Relative change in cell cycle distribution G1, %","SW480 [8]; SW480, 1.25 µM",-9%
same,"Relative change in cell cycle distribution G2/M, %","SW480 [8]; SW480, 1.25 µM",3%
same,"Relative change in cell cycle distribution S, %","SW480 [8]; SW480, 1.25 µM",5%
same,"Cell cycle distribution G1, %","SW480 [8]; SW480, 2.5 µM",43 ± 2%
same,"Cell cycle distribution G2/M, %","SW480 [8]; SW480, 2.5 µM",19 ± 3%
same,"Cell cycle distribution S, %","SW480 [8]; SW480, 2.5 µM",38 ± 5%
same,"Relative change in cell cycle distribution G1, %","SW480 [8]; SW480, 2.5 µM",-5%
same,"Relative change in cell cycle distribution G2/M, %","SW480 [8]; SW480, 2.5 µM",0%
same,"Relative change in cell cycle distribution S, %","SW480 [8]; SW480, 2.5 µM",5%
same,decrease in G1 phase,"SW480 [8]; SW480 cells, at applicable concentrations",< 9%
same,cellular concentration relative to 3 c,SW480 cells,11 times
same,cellular concentration relative to 5 c,SW480 cells,2 times
same,Cellular accumulation,SW480 cells,1680±333 fg/cell
same,cytotoxicity relative to 3 c and 4 c,[9],up to 20 times
same,"IC50 values, in words",[9]; tested cancer cell lines,high nanomolar range
